Drawing on patent US20240270695A1, “COMPOUNDS, COMPOSITIONS AND METHODS OF TREATING DISORDERS” (Chengdu Anticancer Bioscience LTD, priority 2021, published 2024), this text covers minimal effective concentration for 26 compounds.

The test system of assay [1] is RPE-Neo or RPE-MYC or RPE-MYC expressing an EGFP-Histone 2B fusion protein. The experiment in a line: MTT assays of cellular proliferation. Particulars: Homo sapiens, min. effective conc., read-out: Proliferative arrest (<50%). Type of assay: cell-based. On the technique in general: Tetrazolium dyes change colour on reduction, which living cells bring about.
The test system is the same in assay [2]. The experiment in a line: Phenotypic screening assay (arrest in mitosis, change in DNA content, cell death; GE IN-Cell Analyzer 2000). It is filed as cell-based. Particulars: Homo sapiens, compounds 20 nM to 20 μM, 24, 48 or 72 hours.
Where [3] appears, read: read-out: Min. Effective conc. for Polyploidy (≥10%).
Where [4] appears, read: min. effective conc., read-out: Cell Death (>30%).
Setting [5] is: min. effective conc., read-out: Mitotic Arrest (≥10%).

As for `COC(=O)C1=C(O)c2ccccc2N(Cc2cccc(F)c2)C(=O)C1` [Example 8, Methyl 1-(3-fluorobenzyl)-5-hydroxy-2-oxo-2,3-dihydro-1H-benzo[b]azepine-4-carboxylate], in assay [1], the minimal effective concentration lay within 30 to 1000 µM.
On the same count and under the same terms, as for `COC(=O)C1=C(O)c2ccccc2N(Cc2cc(OC)cc(OC)c2)C(=O)C1` [Example 11, Methyl 1-(3,5-dimethoxybenzyl)-5-hydroxy-2-oxo-2,3-dihydro-1H-benzo[b]azepine-4-carboxylate], the figure is 30 to 1000 µM; as for `COC(=O)C1=C(O)c2ccccc2N(Cc2ccc(C#N)cc2)C(=O)C1` [Example 26, Methyl 1-(4-cyanobenzyl)-5-hydroxy-2-oxo-2,3-dihydro-1H-benzo[b]azepine-4-carboxylate], 30 to 1000 µM; as for `COC(=O)C1=C(O)c2ccccc2N(Cc2ccc(OC(F)(F)F)cc2)C(=O)C1` [Example 32, Methyl 5-hydroxy-2-oxo-1-(4-(trifluoromethoxy)benzyl)-2,3-dihydro-1H-benzo[b]azepine-4-carboxylate], 30 to 1000 µM.
Take `COC(=O)C1=C(O)c2ccccc2N(Cc2cccc3ccccc23)C(=O)C1` [Example 38, Methyl 5-hydroxy-1-(naphthalen-1-ylmethyl)-2-oxo-2,3-dihydro-1H-benzo[b]azepine-4-carboxylate]: the minimal effective concentration in assay [2] (setting [3]), in assay [2] (setting [4]), in assay [2] (setting [5]) and in assay [1] was 30 to 1000 µM in each case.
As to `COC(=O)Cc1ccc(CN2C(=O)CC(C(=O)OC)=C(O)c3ccccc32)cc1` [Example 42, Methyl 5-hydroxy-1-(4-(2-methoxy-2-oxoethyl)benzyl)-2-oxo-2,3-dihydro-1H-benzo[b]azepine-4-carboxylate], the minimal effective concentration in assay [1] fell in the range of 30 to 1000 µM.
Turning to `CCCc1ccc(CN2C(=O)CC(C(=O)OC)=C(O)c3ccccc32)cc1` [Example 49, Methyl 5-hydroxy-2-oxo-1-(4-propylbenzyl)-2,3-dihydro-1H-benzo[b]azepine-4-carboxylate], the minimal effective concentration in assay [2] (setting [3]), in assay [2] (setting [4]) and in assay [2] (setting [5]) was 10 to 30 µM each time.
In the case of `CCCCc1ccc(CN2C(=O)CC(C(=O)OC)=C(O)c3ccccc32)cc1` [Example 50, Methyl 1-(4-butylbenzyl)-5-hydroxy-2-oxo-2,3-dihydro-1H-benzo[b]azepine-4-carboxylate], the minimal effective concentration in assay [2] (setting [3]), in assay [2] (setting [4]) and in assay [2] (setting [5]) was 10 to 30 µM in each case.
Consider `COC(=O)C1=C(O)c2ccccc2N(Cc2ccc(OC)c(OC)c2)C(=O)C1` [Example 51, Methyl 1-(3,4-dimethoxybenzyl)-5-hydroxy-2-oxo-2,3-dihydro-1H-benzo[b]azepine-4-carboxylate], for which the minimal effective concentration in assay [2] (setting [3]), in assay [2] (setting [4]) and in assay [2] (setting [5]) was 30 to 1000 µM each time.
For `COC(=O)C1=C(O)c2cc(F)ccc2N(Cc2ccc(C)c(F)c2)C(=O)C1` [Example 52, Methyl 7-fluoro-1-(3-fluoro-4-methylbenzyl)-5-hydroxy-2-oxo-2,3-dihydro-1H-benzo[b]azepine-4-carboxylate], the minimal effective concentration in assay [2] (setting [3]), in assay [2] (setting [4]) and in assay [2] (setting [5]) was 0.001 to 1 µM throughout.
Regarding `COC(=O)C1=C(O)c2cnccc2N(Cc2ccc(C)c(F)c2)C(=O)C1` [Example 53, Methyl 1-(3-fluoro-4-methylbenzyl)-5-hydroxy-2-oxo-2,3-dihydro-1H-pyrido[4,3-b] azepine-4-carboxylate], the minimal effective concentration in assay [2] (setting [3]), in assay [2] (setting [4]) and in assay [2] (setting [5]) was 1 to 10 µM each time.
Turning to `COC(=O)C1=C(O)c2cc(OC)c(OC)cc2N(Cc2ccc(C)c(F)c2)C(=O)C1` [Example 54, Methyl 1-(3-fluoro-4-methylbenzyl)-5-hydroxy-7,8-dimethoxy-2-oxo-2,3-dihydro-1H-benzo[b]azepine-4-carboxylate], the minimal effective concentration in assay [2] (setting [3]), in assay [2] (setting [4]) and in assay [2] (setting [5]) was 0.001 to 1 µM throughout.
Turning to `CCC(=O)C1=C(O)c2ccccc2N(Cc2ccc(C)c(F)c2)C(=O)C1` [Example 55, 1-(3-fluoro-4-methylbenzyl)-5-hydroxy-4-propionyl-1,3-dihydro-2H-benzo[b]azepin-2-one], the minimal effective concentration in assay [2] (setting [3]) and in assay [2] (setting [5]) was 0.001 to 1 µM in each case.
`CC(=O)C1=C(O)c2ccccc2N(Cc2ccc(C)c(F)c2)C(=O)C1` [Example 56, 4-acetyl-1-(3-fluoro-4-methylbenzyl)-5-hydroxy-1,3-dihydro-2H-benzo[b]azepin-2-one]: the minimal effective concentration in assay [2] (setting [3]) and in assay [2] (setting [5]) was 1 to 10 µM each time.
For `CCCC(=O)C1=C(O)c2ccccc2N(Cc2ccc(C)c(F)c2)C(=O)C1` [Example 57, 4-butyryl-1-(3-fluoro-4-methylbenzyl)-5-hydroxy-1,3-dihydro-2H-benzo[b]azepin-2-one], the minimal effective concentration in assay [2] (setting [3]) fell in the range of 1 to 10 µM; in assay [2] (setting [4]), 1 to 10 µM; in assay [2] (setting [5]), 0.001 to 1 µM.
As to `Cc1ccc(CN2C(=O)CC(C(=O)C3CC3)=C(O)c3ccccc32)cc1F` [Example 58, 4-(cyclopropanecarbonyl)-1-(3-fluoro-4-methylbenzyl)-5-hydroxy-1,3-dihydro-2H-benzo[b]azepin-2-one], the minimal effective concentration in assay [2] (setting [3]), in assay [2] (setting [4]) and in assay [2] (setting [5]) was 0.001 to 1 µM in each case.
As to `Cc1ccc(CN2C(=O)CC(C(=O)C(C)C)=C(O)c3ccccc32)cc1F` [Example 59, 1-(3-fluoro-4-methylbenzyl)-5-hydroxy-4-isobutyryl-1,3-dihydro-2H-benzo[b]azepin-2-one], the minimal effective concentration in assay [2] (setting [3]), in assay [2] (setting [4]) and in assay [2] (setting [5]) was 0.001 to 1 µM each time.
Consider `Cc1ccc(CN2C(=O)CC(C(=O)C(C)(C)C)=C(O)c3ccccc32)cc1F` [Example 60, 1-(3-fluoro-4-methylbenzyl)-5-hydroxy-4-pivaloyl-1,3-dihydro-2H-benzo[b]azepin-2-one], for which the minimal effective concentration in assay [2] (setting [3]), in assay [2] (setting [4]) and in assay [2] (setting [5]) was 1 to 10 µM each time.
Consider `Cc1ccc(CN2C(=O)CC(C(=O)C3CCCO3)=C(O)c3ccccc32)cc1F` (centres unmarked) [Example 62, 1-(3-fluoro-4-methylbenzyl)-5-hydroxy-4-(tetrahydrofuran-2-carbonyl)-1,3-dihydro-2H-benzo[b]azepin-2-one], for which the minimal effective concentration in assay [2] (setting [3]), in assay [2] (setting [4]) and in assay [2] (setting [5]) was 1 to 10 µM each time.
`CNC(=O)C1=C(O)c2ccccc2N(Cc2ccc(C)c(F)c2)C(=O)C1` [Example 63, 1-(3-fluoro-4-methylbenzyl)-5-hydroxy-N-methyl-2-oxo-2,3-dihydro-1H-benzo[b]azepine-4-carboxamide]: the minimal effective concentration in assay [2] (setting [3]), in assay [2] (setting [4]) and in assay [2] (setting [5]) was 1 to 10 µM each time.
For `CCNC(=O)C1=C(O)c2ccccc2N(Cc2ccc(C)c(F)c2)C(=O)C1` [Example 64, N-ethyl-1-(3-fluoro-4-methylbenzyl)-5-hydroxy-2-oxo-2,3-dihydro-1H-benzo[b]azepine-4-carboxamide], the minimal effective concentration in assay [2] (setting [3]), in assay [2] (setting [4]) and in assay [2] (setting [5]) was 1 to 10 µM throughout.
Consider `Cc1ccc(CN2C(=O)CC(C(=O)NC(C)C)=C(O)c3ccccc32)cc1F` [Example 65, 1-(3-fluoro-4-methylbenzyl)-5-hydroxy-N-isopropyl-2-oxo-2,3-dihydro-1H-benzo[b]azepine-4-carboxamide], for which the minimal effective concentration in assay [2] (setting [3]), in assay [2] (setting [4]) and in assay [2] (setting [5]) was 1 to 10 µM in each case.
For `Cc1ccc(CN2C(=O)CC(C(=O)NC3CCCCC3)=C(O)c3ccccc32)cc1F` [Example 66, N-cyclohexyl-1-(3-fluoro-4-methylbenzyl)-5-hydroxy-2-oxo-2,3-dihydro-1H-benzo[b]azepine-4-carboxamide], the minimal effective concentration in assay [2] (setting [3]), in assay [2] (setting [4]) and in assay [2] (setting [5]) was 10 to 30 µM each time.
On to `CNC(=S)C1=C(O)c2ccccc2N(Cc2ccc(C)c(F)c2)C(=O)C1` [Example 67, 1-(3-fluoro-4-methylbenzyl)-5-hydroxy-N-methyl-2-oxo-2,3-dihydro-1H-benzo[b]azepine-4-carbothioamide], for which the minimal effective concentration in assay [2] (setting [3]), in assay [2] (setting [4]) and in assay [2] (setting [5]) was 10 to 30 µM in each case.
With `Cc1ccc(CN2C(=O)CC(C(=O)C(F)(F)F)=C(O)c3ccccc32)cc1F` [Example 68, 1-(3-fluoro-4-methylbenzyl)-5-hydroxy-4-(2,2,2-trifluoroacetyl)-1,3-dihydro-2H-benzo[b]azepin-2-one], the minimal effective concentration in assay [2] (setting [3]), in assay [2] (setting [4]) and in assay [2] (setting [5]) was 10 to 30 µM throughout.
On to `CNC(=O)C1=C(O)c2ccccc2N(CC2CC2)C(=O)C1` [Example 70, 1-(cyclopropylmethyl)-5-hydroxy-N-methyl-2-oxo-2,3-dihydro-1H-benzo[b]azepine-4-carboxamide], for which the minimal effective concentration in assay [2] (setting [3]), in assay [2] (setting [4]), in assay [2] (setting [5]) and in assay [1] was 30 to 1000 µM throughout.
